One experiment deals with calmodulin (Bos taurus, UniProt P62157). In words: kinetic analysis of N9 replacement peptides and multiple mutant by the methods of Examples 3 and 4. Type of experiment: binding. Conditions: Table II, N9 replacement. The procedure: Real-time interaction analysis by surface plasmon resonance on a BIAcore instrument (Jonsson et al., 1991) was used to determine kon and koff constants. […] Different concentrations of calmodulin (5, 10, 20, 50 and 100 nM in the order of FIG. 2) were injected and allowed to associate with the peptides. Regeneration of the surface was achieved by injection of 5 μl TBS+[…] which dissociates the calmodulin-peptide complex.
30 nM fluorescein-labelled peptide/calmodulin complexes in gel buffer were competed at room temperature for different times with 30-fold excess of unlabelled peptide. The resulting mixtures were run on native PAGE gels and imaged by LUANA as described above. The bands in the image obtained were integrated using the LUANA software (Neri et al., 1996) and the corresponding intersities plotted versus time and fitted with a single exponential, from which koff constants were derived. In order to normalise band intensities against pipetting errors, the samples contained 6 nM free fluorescein which ran with the front. The fluorescein bands were integrated and used to normalise the calmodulin/fluorescent peptide complex band intensity. […] Incubation time in minutes is indicated under the lanes.
Hydrophobic donor residues (valine, phenylalanine and leucine) were chosen because it was hypothesized that these residues would contribute to the stability of the hydrophobic environment in the calmodulin core.

The next experiment addresses T1, barnase (Bacillus amyloliquefaciens, UniProt P00648).
T1 sequence (P00648 48-157): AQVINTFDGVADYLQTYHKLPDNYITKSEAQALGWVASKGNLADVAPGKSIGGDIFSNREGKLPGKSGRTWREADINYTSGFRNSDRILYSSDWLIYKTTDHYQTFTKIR
The settings on record: cited from earlier work.

For two molecules, koff, kon and association rate constant results are on record in patent US6316409A, “Modified ligands of calcium-dependent binding proteins” (Medical Research Council, priority 1996, dated 2001).

Peptide text beside a SMILES is read from it.

On to `CC[C@H](C)[C@H](NC(=O)[C@H](Cc1ccccc1)NC(=O)[C@H](CC(C)C)NC(=O)[C@H](CCCCN)NC(=O)[C@H](CCCCN)NC(=O)[C@H](Cc1c[nH]c2ccccc12)NC(=O)[C@H](CCCNC(=N)N)NC(=O)[C@H](C)NC(=O)[C@H](C)NC(=O)[C@H](C)NC(=O)[C@@H](N)CS)C(=O)N[C@@H](C)C(=O)N[C@H](C(=O)N[C@@H](CO)C(=O)N[C@@H](C)C(=O)N[C@@H](C)C(=O)N[C@@H](CC(N)=O)C(=O)N[C@@H](CCCNC(=N)N)C(=O)N[C@@H](Cc1ccccc1)C(=O)N[C@@H](CCCCN)C(=O)N[C@@H](CCCCN)C(=O)N[C@H](C(=O)N[C@@H](CO)C(N)=O)[C@@H](C)CC)C(C)C` [c] (H-CAAARWKKLFIAVSAANRFKKIS-NH2; N-terminus and C-terminus assumed), for which, at calmodulin, the koff came out at 2.3e-05 s⁻¹ and the kon came out at 1.1e+06 M⁻¹ s⁻¹.

B1: barstar: physiological inhibitor of barnase (protein, UniProt P11540 2-90, looked up)
Barstar: KKAVINGEQIRSISDLHQTLKKELALPEYYGENLDALWDCLTGWVEYPLVLEWRQFEQSKQLTENGAESVLQVFREAKAEGCDITIILS
For B1, the association rate constant with barnase was 3.8e+09 M⁻¹ s⁻¹.
